Read-outs that look alike come from different tables or passages of the source. Non-standard residues stand in square brackets, D forms with d. Residues, ends and D or L forms follow the SMILES beside them. Tyr(3-NO2) = N[C@@H](Cc1ccc(O)c([N+](=O)[O-])c1)C(=O)O; 2Abz = Nc1ccccc1C(=O)O
Legend:
HCMV NO protease = HCMV NO protease (Human cytomegalovirus, UniProt P16753); assay: HCMV NO Protease Assay (inhibition of cleavage of internally quenched fluorogenic peptide substrate); format: biochemical; conditions: for IC50: 100 nM HCMV NO protease, 5 μM substrate, 2.5 h at 30°, pH 8
HCMV NO protease, sequence (P16753 1-256): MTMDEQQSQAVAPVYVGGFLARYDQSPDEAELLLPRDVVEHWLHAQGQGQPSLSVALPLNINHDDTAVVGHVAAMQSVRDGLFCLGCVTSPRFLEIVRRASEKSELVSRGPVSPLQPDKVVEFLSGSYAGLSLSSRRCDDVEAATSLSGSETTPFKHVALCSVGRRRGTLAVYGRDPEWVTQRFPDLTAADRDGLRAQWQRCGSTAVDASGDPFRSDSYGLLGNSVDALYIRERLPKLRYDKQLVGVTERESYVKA
Method: This particular assay determines the ability of a test compound to inhibit the activity of HCMV protease. More specifically, in the assay described herein, the inhibitory activity of the test compound is evaluated on the basis of its ability to interfere with the HCMV No protease cleavage of a fluorogenic peptide substrate which in turn is based on the maturation cleavage site of the enzyme.
A. HCMV NO Protease Assay
Material & Methods: Fluorescence measurements were recorded on a Perkin-Elmer LS-50B spectrofluorimeter equipped with a plate reader accessory. UV measurements were recorded on a Thermomax® microplate reader from Molecular Devices Corporation, Menlo Park, Calif., USA.
HCMV NO protease was assayed with an internally quenched fluorogenic substrate based on the maturation cleavage site (Abz-[…](3-NO2)R--OH, kcat /KM =260 M^-1 s^-1). The fluorescence increase upon cleavage of the Ala-Ser amide bond was monitored using excitation λ=312 nm (slit 2.5 nm) and emission λ=415 nm (slit 5 nm). A protocol adaptable to a 96-well plate format was designed for the determination of IC50 values of inhibitors. […] After this period, enzymatic hydrolysis of the fluorogenic substrate in the absence of inhibitor led to about a 30% conversion. Quenching was not required before fluorescence measurement since the total scanning time by the plate reader accessory was brief relative to the duration of the reaction. The aqueous incubation buffer contained 50 mM tris(hydroxymethyl)aminomethane.HCl pH 8, 0.5M Na2 SO4, 50 mM NaCl, 0.1 mM EDTA, 1 mM tris(2-carboxyethyl)phosphine.HCl, 3% v/v DMSO and 0.05% w/v casein. The final concentrations of HCMV NO protease (expressed in terms of total monomer concentration) and substrate were 100 nM and 5 μM respectively. IC50 values were obtained through fitting of the inhibition curve to a competitive inhibition model using SAS NLIN procedure. The mode of inhibition was determined by measurements of the initial rates (in cuvettes) at various substrate concentrations in the buffer as described above. The IC50 values listed in the following tables the IC50 were obtained according to this assay.

[1] = Cytotoxic effects, tetrazolium salt (MTT) metabolic assay; format: cell-based; conditions: read-out: TC50 (the source's name)
Method: In conjunction with the appropriate starting materials and intermediates, the procedures of examples 1 to 11 can be used to prepare other compounds of formula 1. Examples of compounds thus prepared are listed in the following Tables I, II and III together with mass spectrum data for the compounds, and results from the assays A and B of example 12. Cytotoxic effects noted as TC50 in the following tables were determined according to the tetrazolium salt (MTT) metabolic assay, F. Denizot and F. Lang, J. Immun. Meth., 1986, 89, 271.

[2] = system: HCMV (strain AD169, ATCC VR-538); assay: Plaque Reduction Assay (PRA); format: cell-based, human cytomegalovirus (HCMV); conditions: Hs-68 cells, approximately 50 PFU HCMV AD169, 8 days at 37°, read-out: EC50
Method: B. Plaque Reduction Assay (PRA)
Hs-68 cells (ATCC #CRL 1635) were seeded in 12-well plates at 83,000 cells/well in 1 mL of DMEM medium (Gibco Canada Inc.) supplemented with 10% fetal bovine serum (FBS, Gibco Canada Inc.). The plates were incubated for 3 days at 37° to allow the cells to reach 80-90% confluency prior to the assay.
The medium was removed from the cells by aspiration. The cells were then infected with approximately 50 PFU of HCMV (strain AD169, ATCC VR-538) in DMEM medium supplemented with 5% inactivated FBS (assay medium). (DMEM medium is commercially available and has been described by R. Dulbecco et al., Virology 1959, 8, 396.) The virus was allowed to adsorb to cells for 2 h at 37°. Following viral adsorption, the medium was removed from the wells by aspiration. The cells were then incubated with or without 1 mL of appropriate concentrations of test reagent in assay medium. Occasionally, test compounds were added 24 h post-infection. After 4 days of incubation at 37°, the medium was exchanged with fresh medium containing test compound and 4 days later the cells were fixed with 1% aqueous formaldehyde and stained with a 2% violet solution in 20% ethanol in water. Microscopic plaques were counted using a stereomicroscope. Drug effects were calculated as a percent reduction in the number of plaques in the presence of each drug concentration compared to the number observed in the absence of drug. Ganciclovir was used as a positive control in all experiments.

[3] = Human betaherpesvirus 5, AD169, Hs68, 192 h

Compound | IC50 (HCMV NO protease) | CC50 [1] | EC50 [2] | EC50 [2, 3] | kcat/KM (HCMV NO protease; fluorogenic substrate of HCMV NO protease)
CCC(NC(=O)N1C(=O)[C@@H](C)[C@@H]1Cc1ccccc1)c1ccncc1 (single isomer, unassigned) [Entry 206] | 3.2 µM | > 250 µM | 96 µM |  | 
CC[C@@H](NC(=O)N1C(=O)C[C@@H]1C(C)C)c1ccccc1 [Entry 213] | 5.9 µM | > 250 µM |  | 210 µM | 
CN(C)C(=O)N1C(=O)C[C@@H]1Cc1ccccc1 [Entry 113] | 50 µM |  |  |  | 
C[C@H](c1ccccc1)N(C)C(=O)N1C(=O)C[C@@H]1Cc1ccccc1 [Entry 119] | 24 µM |  |  |  | 
O=C1C[C@H](Cc2ccccc2)N1C(=O)N1CCOCC1 [Entry 301] | 142 µM |  |  |  | 
CN(Cc1ccc([N+](=O)[O-])cc1)C(=O)N1C(=O)C[C@@H]1Cc1nnn(C)n1 [Entry 224] | 2.7 µM | > 133 µM |  | 100 µM | 
CC[C@@H](NC(=O)N1C(=O)C[C@@H]1[C@@H](C)CC)c1ccccc1 [Entry 217] | 11 µM | > 250 µM |  | 85 µM | 
CC(C)C[C@H](NC(=O)[C@H](CCCNC(=N)N)NC(=O)[C@H](CO)NC(=O)[C@H](CO)NC(=O)[C@H](C)NC(=O)[C@H](CC(N)=O)NC(=O)[C@@H](NC(=O)[C@@H](NC(=O)c1ccccc1N)C(C)C)C(C)C)C(=O)N[C@@H](Cc1ccc(O)c([N+](=O)[O-])c1)C(=O)N[C@@H](CCCNC(=N)N)C(=O)O [reference compound] (H-[2Abz]VVNASSRL[Tyr(3-NO2)]R-OH) |  |  |  |  | 260 M⁻¹ s⁻¹
CN(Cc1ccc([N+](=O)[O-])cc1)C(=O)N1C(=O)C[C@@H]1Cc1ccccc1 [Entry 122] | 1.5 µM | > 250 µM |  | 105 µM | 
CC[C@@H](C)[C@H]1CC(=O)N1C(=O)N[C@H](CC)c1ccccc1 [Entry 216] | 4.4 µM | > 250 µM |  | 110 µM | 
O=C1C[C@H](Cc2ccccc2)N1C(=O)NC1CCc2ccccc21 (stereo partly drawn) [Entry 140] | 14 µM |  |  |  | 
O=C1C[C@H](Cc2ccccc2)N1C(=O)N1CCCC1 [Entry 303] | 63 µM |  |  |  | 
CN(Cc1ccc(C(F)(F)F)cc1)C(=O)N1C(=O)CC1Cc1nnn(C)n1 (stereo in doubt) [Entry 223, 4(R)-(2-methyl-2H-tetrazol-5-ylmethyl)-2-oxoazetidine-1-carboxylic acid N-methyl-N{{(4-trifluoromethyl)phenyl}methyl}amide] | 5.7 µM | > 195 µM |  | 94 µM | 
CC[C@@H](NC(=O)N1C(=O)[C@@H](SC)[C@@H]1Cc1ccccc1)c1ccccc1 [Entry 209, 4(S)-Benzyl-3(S)-(methylthio)-2-oxoazetidine-1-carboxylic acid (1(R)-phenylpropyl)amide] | 4.7 µM | > 250 µM |  | 27 µM | 
CN(Cc1ccc(Cl)cc1)C(=O)N1C(=O)C[C@@H]1Cc1ccccc1 [Entry 126] | 6.9 µM | > 250 µM |  | 150 µM | 
O=C1C[C@H](Cc2ccccc2)N1C(=O)NCc1ccc2c(c1)OCO2 [Entry 111] | 3.7 µM | > 150 µM |  | > 150 µM | 
CC[C@@H](NC(=O)N1C(=O)C[C@@H]1Cc1ccccc1)c1ccccc1 [Entry 118] | 2.6 µM | > 250 µM |  | 180 µM | 
CCC(NC(=O)N1C(=O)C[C@@H]1Cc1ccccc1)c1ccncc1 (stereo partly drawn) [Entry 109] | 1.6 µM | > 250 µM |  | 130 µM | 
C[C@@H]1C(=O)N(C(=O)NCc2ccccc2)[C@H]1Cc1ccccc1 [Entry 207, 4(S)-Benzyl-3(S)-methyl-2-oxoazetidine-1-carboxylic acid benzylamide] | 5.3 µM | > 250 µM |  | 140 µM | 
CN(Cc1ccc([N+](=O)[O-])cc1)C(=O)N1C(=O)C[C@@H]1Cc1cccs1 [Entry 226] | 1.3 µM | > 79 µM |  | 70 µM | 
O=C1C[C@H](Cc2ccccc2)N1C(=O)NCc1ccccn1 [Entry 143] | 33 µM |  |  |  | 
O=C1C[C@H](Cc2ccccc2)N1C(=O)N1CCCc2ccccc21 [Entry 304] | 154 µM |  |  |  | 

Compound | IC50 (HCMV NO protease) | CC50 [1] | EC50 [2] | EC50 [2, 3] | kcat/KM (HCMV NO protease; fluorogenic substrate of HCMV NO protease)
CC(c1ccccc1)N(C)C(=O)N1C(=O)CC1Cc1ccccc1 (stereo not drawn) [Entry 120] | 17.7 µM |  |  |  | 
CN(Cc1ccc(C(F)(F)F)cc1)C(=O)N1C(=O)C[C@@H]1Cc1nc2ccccc2s1 [Entry 219] | 0.88 µM | > 250 µM |  | 110 µM | 
O=C1C[C@H](Cc2ccccc2)N1C(=O)Nc1ccncc1 [Entry 107] | 1.9 µM | > 250 µM |  | > 250 µM | 
CN(Cc1ccc(N)cc1)C(=O)N1C(=O)C[C@@H]1Cc1ccccc1 [Entry 125] | 13.4 µM |  |  |  | 
CN(Cc1ccc([N+](=O)[O-])cc1)C(=O)N1C(=O)C[C@@H]1Cc1nc2ccccc2s1 [Entry 225] | 0.7 µM | > 50 µM |  | 30 µM | 
CCC(CC)NC(=O)N1C(=O)C[C@@H]1Cc1ccccc1 [Entry 110] | 38 µM |  |  |  | 
COc1ccc(CN(C)C(=O)N2C(=O)C[C@@H]2Cc2ccccc2)cc1 [Entry 130] |  | > 250 µM |  | 110 µM | 
CN(Cc1ccc([S+]([O-])C(F)(F)F)cc1)C(=O)N1C(=O)C[C@@H]1Cc1ccccc1 (stereo partly drawn) [Entry 138] |  | > 250 µM |  | > 250 µM | 
CCC(NC(=O)N1C(=O)C[C@@H]1Cc1ccccc1)c1ccncc1 (stereo partly drawn) [Entry 108] | 28 µM |  |  |  | 
O=C1C[C@H](Cc2ccccc2)N1C(=O)Nc1ccccc1 [Entry 104] |  | > 250 µM |  | > 250 µM | 
O=C1C[C@H](Cc2ccccc2)N1C(=O)N1CCc2ccccc2C1 [Entry 302] | 36 µM |  |  |  | 
CN(Cc1ccc(C(F)(F)F)cc1)C(=O)N1C(=O)C[C@@H]1Cc1ncoc1-c1ccccc1 [Entry 220] | 14 µM |  |  |  | 
CC[C@@H](NC(=O)N1C(=O)C[C@H]1C(C)(C)C)c1ccccc1 [Entry 215, 4(S)-tert-Butyl-2-oxoazetidine-1-carboxylic acid (1(R)-phenylpropyl)amide] | 41 µM |  |  |  | 
CN(CC(=O)OCc1ccccc1)C(=O)N1C(=O)C[C@@H]1Cc1ccccc1 [Entry 115] | 11.7 µM |  |  |  | 
CN(CCc1ccccc1)C(=O)N1C(=O)C[C@@H]1Cc1ccccc1 [Entry 114] | 38 µM |  |  |  | 
CN(Cc1ccccc1)C(=O)N1C(=O)C[C@@H]1Cc1ccccc1 [Entry 112] |  | > 150 µM |  | 150 µM | 
CCC(c1ccccc1)N(C)C(=O)N1C(=O)CC1Cc1ccccc1 (stereo not drawn) [Entry 123] | 30 µM |  |  |  | 
CC(NC(=O)N1C(=O)CC1Cc1ccccc1)c1ccccc1 (stereo not drawn) [Entry 141] | 42 µM |  |  |  | 
C[C@@H]1C(=O)N(C(=O)NCc2ccncc2)[C@H]1Cc1ccccc1 [Entry 201] |  | > 250 µM |  | 190 µM | 
CO[C@@H]1C(=O)N(C(=O)NCc2ccncc2)[C@H]1Cc1ccccc1 [Entry 210, 4(S)-Benzyl-3(S)-methoxy-2-oxoazetidine-1-carboxylic acid (4-pyridinylmethyl)amide] |  | > 250 µM |  | 210 µM | 
CN(Cc1ccc(C(F)(F)F)cc1)C(=O)N1C(=O)C[C@@H]1Cc1ccccc1 [Entry 135, 4(S)-Benzyl-2-oxoazetidine-1-carboxylic acid N-methyl-N-{{4-(trifluoromethyl)phenyl}methyl}amide] |  | > 250 µM |  | 190 µM | 
